Assay results reported in article PMC9124243 (Cell chemical biology, 2021).
Where two headings read alike, the source gives them in different places.

Key:
Mtb DnaK-DnaJ2-GrpE = Mtb DnaK-DnaJ2-GrpE (Mycobacterium tuberculosis, UniProt P9WMJ9); assay: biochemical
[1] = target: mycobacterial DnaK and GrpE with DnaJ2 (Mycobacterium tuberculosis, UniProt P9WMJ9); assay type: biochemical; details: excess compound
human Hsc70 and DnaJA2 = human Hsc70 and DnaJA2 (Homo sapiens, UniProt P11142); assay: Denatured luciferase refolding by human chaperones; assay type: biochemical
human Hsc70 and DnaJA2, sequence (P11142 whole entry): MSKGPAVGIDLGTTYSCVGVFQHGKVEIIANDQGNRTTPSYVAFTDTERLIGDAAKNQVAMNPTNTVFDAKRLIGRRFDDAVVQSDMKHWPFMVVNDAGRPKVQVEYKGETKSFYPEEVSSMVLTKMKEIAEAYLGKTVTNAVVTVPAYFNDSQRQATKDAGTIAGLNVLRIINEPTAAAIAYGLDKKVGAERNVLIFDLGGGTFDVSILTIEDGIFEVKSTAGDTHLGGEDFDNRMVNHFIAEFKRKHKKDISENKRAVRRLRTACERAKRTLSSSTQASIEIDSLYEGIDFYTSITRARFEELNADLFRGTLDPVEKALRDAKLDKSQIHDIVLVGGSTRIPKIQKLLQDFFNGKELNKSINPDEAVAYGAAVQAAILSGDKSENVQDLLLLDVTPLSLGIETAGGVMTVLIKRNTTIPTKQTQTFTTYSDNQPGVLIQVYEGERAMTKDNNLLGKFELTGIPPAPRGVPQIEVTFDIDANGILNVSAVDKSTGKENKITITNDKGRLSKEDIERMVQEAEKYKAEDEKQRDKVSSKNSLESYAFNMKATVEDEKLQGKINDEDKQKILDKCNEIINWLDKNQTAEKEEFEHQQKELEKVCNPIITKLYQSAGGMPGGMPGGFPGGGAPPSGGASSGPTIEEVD

Mtb DnaK^FL = Mtb DnaK^FL (Mycobacterium tuberculosis, UniProt P9WMJ9); assay type: binding; details: FP competition
Mtb DnaK^FL, sequence (P9WMJ9 whole entry): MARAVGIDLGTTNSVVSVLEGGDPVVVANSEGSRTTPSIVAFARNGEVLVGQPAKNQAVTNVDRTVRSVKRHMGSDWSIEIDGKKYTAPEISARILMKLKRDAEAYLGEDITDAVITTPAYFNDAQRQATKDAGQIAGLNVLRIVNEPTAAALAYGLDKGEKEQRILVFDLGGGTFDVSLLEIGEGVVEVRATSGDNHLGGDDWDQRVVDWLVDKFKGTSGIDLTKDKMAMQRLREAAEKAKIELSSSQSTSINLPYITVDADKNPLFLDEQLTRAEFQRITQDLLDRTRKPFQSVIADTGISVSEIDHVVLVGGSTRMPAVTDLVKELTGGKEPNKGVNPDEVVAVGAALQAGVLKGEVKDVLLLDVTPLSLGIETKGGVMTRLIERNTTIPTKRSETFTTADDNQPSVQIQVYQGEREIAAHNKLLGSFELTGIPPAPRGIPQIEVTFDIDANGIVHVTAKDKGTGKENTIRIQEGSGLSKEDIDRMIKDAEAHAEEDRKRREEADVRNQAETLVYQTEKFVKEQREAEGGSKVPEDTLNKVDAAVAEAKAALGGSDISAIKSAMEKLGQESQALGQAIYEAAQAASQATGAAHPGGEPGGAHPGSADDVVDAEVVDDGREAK

[2] = target: Mtb DnaK activation by DnaJ2 and GrpE (Mycobacterium tuberculosis, UniProt P9WMJ9); assay type: biochemical; details: for DnaJ2- and GrpE-mediated activation of DnaK: excess HCV inhibitor, DnaK 4 μM
Mtb DnaK activation by DnaJ2 and GrpE, sequence (P9WMJ9 whole entry): as above

M. smegmatis (Msm) = assay: Mycobacterial growth inhibition assay; assay type: cell-based, Mycobacterium smegmatis; details: for effect on Msm growth: wild-type Msm
luciferase = assay: Luciferase counter-assay; assay type: biochemical
Msm [3] = details: below the limit of detection; ref Fay et al., 2021; cited from earlier work
Msm [4] = assay type: cell-based, Mycobacterium smegmatis
[5] = target: DnaK^SBD, residues 360-625 (Mycobacterium tuberculosis, UniProt P9WMJ9); assay type: binding; details: FP competition
DnaK^SBD, residues 360-625, sequence (P9WMJ9 360-625): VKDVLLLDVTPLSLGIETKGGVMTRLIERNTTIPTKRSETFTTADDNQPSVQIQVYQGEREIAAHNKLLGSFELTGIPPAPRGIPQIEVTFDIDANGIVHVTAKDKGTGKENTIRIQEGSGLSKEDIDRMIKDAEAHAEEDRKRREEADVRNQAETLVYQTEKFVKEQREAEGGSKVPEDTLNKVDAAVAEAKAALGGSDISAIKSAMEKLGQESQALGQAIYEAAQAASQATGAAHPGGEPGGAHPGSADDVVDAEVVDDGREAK

Mtb DnaK = Mtb DnaK (Mycobacterium tuberculosis, UniProt P9WMJ9); assay type: biochemical; details: excess compound, DnaK without cofactors
Mtb DnaK, sequence (P9WMJ9 whole entry): as the sequence (P9WMJ9 whole entry) above

HCV protease (NS3/4A) = details: ref Grillot et al., 2011; cited from earlier work
proteinase K = proteinase K (Parengyodontium album, UniProt P06873); assay: Hemoglobin proteolysis control for proteinase K activity; assay type: biochemical; details: 50 μM TP
proteinase K, sequence (P06873 106-384): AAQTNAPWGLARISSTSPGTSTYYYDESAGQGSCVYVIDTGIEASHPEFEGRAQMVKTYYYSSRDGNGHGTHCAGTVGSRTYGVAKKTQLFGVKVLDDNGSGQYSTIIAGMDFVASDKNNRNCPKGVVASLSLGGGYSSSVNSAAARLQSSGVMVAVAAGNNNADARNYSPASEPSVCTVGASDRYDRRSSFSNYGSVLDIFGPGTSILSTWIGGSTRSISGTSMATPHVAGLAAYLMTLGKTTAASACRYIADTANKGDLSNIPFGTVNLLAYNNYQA

Msm [6] = assay: MIC assays for antibiotic synergy with TP; assay type: cell-based, Mycobacterium smegmatis; details: for improvement in MIC50: with 100 μM TP added
[7] = kinetic analysis of ATP hydrolysis by DnaK-DnaJ2-GrpE

Mtb DnaK-DnaJ2-GrpE, sequence (P9WMJ9 whole entry): as the sequence (P9WMJ9 whole entry) above
mycobacterial DnaK and GrpE with DnaJ2, sequence (P9WMJ9 whole entry): as above

Molecule: 4BB-Val-Val-Pro-Leu-OH [Compound 3]
- inhibition of DnaK-DnaJ2-GrpE ATPase activity in dose-response assay (Mtb DnaK-DnaJ2-GrpE): no activity

Molecule: 4BB-Val-Val-Pro-Leu-OMe [Compound 6]
- inhibition of DnaK-DnaJ2-GrpE ATPase activity in dose-response assay (Mtb DnaK-DnaJ2-GrpE): no activity

Molecule: CC(C)(C)NC(=O)N[C@H](C(=O)N1C[C@H]2[C@@H]([C@H]1C(=O)NC(CC1CCC1)C(=O)C(N)=O)C2(C)C)C(C)(C)C (some centres unmarked) [BC, boceprevir]
- effect on refolding reactions [1]: only a slight effect
- inhibition of DnaK-DnaJ2-GrpE ATPase activity in dose-response assay (Mtb DnaK-DnaJ2-GrpE; dose-response): inactive
- inhibition of human chaperones (human Hsc70 and DnaJA2; excess compound): does not inhibit
- competition with FL-NR for binding to DnaK (Mtb DnaK^FL): no effect on binding of the probe

Molecule: CNC(=O)[C@H]1O[C@@H](n2cnc3c(NCc4cccc(I)c4)nc(Cl)nc32)[C@H](O)[C@@H]1O [MECA, 2Cl-IB-MECA]
- DnaJ2-mediated activation of DnaK's ATPase activity [2]: hindered
- activation of DnaK by increasing concentrations of GrpE ([2]; excess MECA, sub-stoichiometric DnaJ2): nearly abrogated
- IC50 (Mtb DnaK-DnaJ2-GrpE): ~4.5 µM
- competition with ATP (Mtb DnaK-DnaJ2-GrpE; [7]): no competition with ATP
- effect on Msm growth (M. smegmatis (Msm)): only TP appears to cause growth inhibition of mycobacterial cells
- activity against luciferase alone (luciferase): no activity

Molecule: CO[C@H]1/C=C/O[C@@]2(C)Oc3c(C)c(O)c4c(O)c(c(/C=N/N5CCN(C)CC5)c(O)c4c3C2=O)NC(=O)/C(C)=C\C=C\[C@H](C)[C@H](O)[C@@H](C)[C@@H](O)[C@@H](C)[C@H](OC(C)=O)[C@@H]1C [RIF, rifampicin]
- FOR value of Msm ΔdnaJ2 cells (Msm [3]): < 10^−10

Molecule: CCC[C@H](NC(=O)[C@@H]1[C@H]2CCC[C@H]2CN1C(=O)[C@@H](NC(=O)[C@@H](NC(=O)c1cnccn1)C1CCCCC1)C(C)(C)C)C(=O)C(=O)NC1CC1 [TP, Telaprevir]
- lowering of the FOR of RIF (Msm [4]; 100 μM TP + 240 μM RIF, Msm): about 1 log10
- FOR of Msm for RIF with TP added (Msm [4]; 240 μM RIF + 100 μM TP): ~ 10^−8
- displacement of FL-NR from DnaK^SBD [5]: displace FL-NR
- DnaJ2- and GrpE-mediated activation of DnaK [2]: significantly disrupted
- increase of the KM of DnaK (Mtb DnaK-DnaJ2-GrpE; [7]): ~ 2 fold
- concentration causing growth inhibition (M. smegmatis (Msm)): > 100 µM
- growth of Msm ΔdnaJ1 (M. smegmatis (Msm); 100 μM TP): growth defects
- refolding activity compared to DMSO alone (human Hsc70 and DnaJA2; 100 μM TP): 35%
- effect on DnaK ATPase activity (Mtb DnaK): slightly inhibits
- Ki (HCV protease (NS3/4A)): 0.044 µM
- effect on cleavage by proteinase K (proteinase K): did not affect cleavage by proteinase K
- effect on activity of rifampicin (Msm [6]; 100 μM TP): does not affect the activity
- activity against luciferase alone (luciferase): no activity

Molecule: NC[C@H]1O[C@H](O[C@H]2[C@H](O)[C@@H](O[C@H]3O[C@H](CO)[C@@H](O)[C@H](N)[C@H]3O)[C@H](N)C[C@@H]2N)[C@H](O)[C@@H](O)[C@@H]1O [kanamycin]
- improvement in MIC50 (Msm [6]): ~ 2 fold

Molecule: COc1ccc2c(O[C@@H]3C[C@H]4C(=O)N[C@]5(C(=O)NS(=O)(=O)C6CC6)C[C@H]5/C=C\CCCCN(C)C(=O)[C@@H]4C3)cc(-c3nc(C(C)C)cs3)nc2c1C [simeprevir]
- DnaJ2- and GrpE-mediated activation of DnaK [2]: significantly disrupted
- IC50 value relative to that of TP (Mtb DnaK-DnaJ2-GrpE; DnaK-DnaJ2-GrpE ATPase): ~ 8 fold
- inhibition of DnaK-DnaJ2-GrpE ATPase activity in dose-response assay (Mtb DnaK-DnaJ2-GrpE; dose-response): measurable inhibition
- effect on Msm growth (M. smegmatis (Msm)): did not affect Msm growth

Molecule: [H]/N=C(/N)N[C@H]1[C@H](O)[C@@H](O)[C@H](O[C@@H]2O[C@@H](C)[C@](O)(C=O)[C@H]2O[C@@H]2O[C@@H](CO)[C@H](O)[C@@H](O)[C@@H]2NC)[C@@H](N/C(N)=N\[H])[C@@H]1O [streptomycin]
- improvement in MIC50 (Msm [6]): ~4 fold
